The target of experiment [1] is T1, human M1 receptor (hCHRM1) (Homo sapiens, UniProt P11229).
T1 construct: expressed in transfected cells
T1 sequence (P11229 1-460): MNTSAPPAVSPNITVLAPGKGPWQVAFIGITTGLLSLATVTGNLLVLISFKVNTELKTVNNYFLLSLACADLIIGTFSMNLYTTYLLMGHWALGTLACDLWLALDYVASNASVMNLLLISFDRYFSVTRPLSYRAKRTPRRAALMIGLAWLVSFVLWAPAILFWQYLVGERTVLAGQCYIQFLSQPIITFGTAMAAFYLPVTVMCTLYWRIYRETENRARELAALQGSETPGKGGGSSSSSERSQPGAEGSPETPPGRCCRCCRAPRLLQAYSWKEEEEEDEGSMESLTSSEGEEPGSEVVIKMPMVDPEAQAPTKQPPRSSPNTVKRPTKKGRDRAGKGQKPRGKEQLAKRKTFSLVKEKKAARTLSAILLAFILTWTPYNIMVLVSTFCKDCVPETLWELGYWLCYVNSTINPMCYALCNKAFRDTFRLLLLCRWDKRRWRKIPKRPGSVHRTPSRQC
Description: Measurement of M1 receptor positive allosteric modulator (M1PAM) activity, calcium fluorescence (FLIPRtetra). It is filed as cell-based. To be noted: 10 μM test compound with acetylcholine at EC20 (final 0.6-0.8 nM); 100% = acetylcholine 1 μM, 0% = DMSO; CHO-K1 cells expressing hCHRM1. Summed up:
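CHO-K1 cells stably expressing hM1 were Fluo-4-loaded; compound added with acetylcholine at EC20 (0.6-0.8 nM final), calcium fluorescence read 1 min on FLIPRtetra. Activity scaled between DMSO (0%) and 1 μM acetylcholine (100%); inflection point of concentration–response reported as IP.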

A further experiment deals with IP1 production. As to the kind of experiment: Measurement of myo-inositol 1 phosphate (IP1) in hippocampi after oral administration. The settings on record: rat hippocampus, relative to Vehicle administration group as 100%. The class given is in vivo, male Long-Evans rats. The method, then:
Measurement of Myo-Inositol 1 Phosphate (IP1)
Animals used were male Long-Evans rats. They were used after acclimation for at least 1 week. Test compounds were suspended in 0.5% (w/v) aqueous methylcellulose solution, and the suspension was orally administered to the rats. After a given time, lithium chloride was dissolved in saline and subcutaneously administered into the rats. After a given time, their bilateral hippocampi were isolated from the rats, and the wet weight thereof was measured. The isolated hippocampi were homogenized with HEPES buffer, followed by centrifugation. The IP1 and protein concentrations in the supernatant were measured by IP-One HTRF(R) assay kit (Cisbio Bioassays) and BCA protein assay kit (Thermo Scientific), respectively. The level of the IP1 production was expressed as the ratio of the concentration of IP1 to that of protein. The increase rate of the IP1 production was shown as a relative value when Vehicle administration group as 100%.

Experiment [2] has as its system Scopolamine-induced memory deficits models. Description: Novel object recognition test. The class given is in vivo, male Long-Evans rats. To be noted: 2 hours before acquisition trial, scopolamine 0.1 mg/kg s.c., mean±standard error. The procedure: Novel Object Recognition Test Novel object recognition test is comprised of two trials called the acquisition and the retention trials. Scopolamine-induced memory deficits models were used for the test, and animals used were male Long-Evans rats (7-week-old). On the day before the test, for acclimation, the rats were allowed to freely move about the test box (40×40×50 cm) for 10 minutes. On the test day, the rats were acclimated to the test room for about for 1 hr prior to the test. The test compounds were orally administered to the rats in a single dose 2 hours before the acquisition trial. For induction of learning and memory deficits, scopolamine (0.1 mg/kg) was subcutaneously administered into the rats for 30 min before the acquisition trial. For the acquisition trial, two identical objects (A1, A2) were placed in the test box. The rats were put in the test box for 3 min, and the duration exploring each object was measured. The retention trial was performed for 4 hr after the acquisition trial. For the retention trial, one familiar object (A3) used for the acquisition trial and one novel object (B) having a different shape from A3 were placed in the test box. After setting the objects, the rats were introduced into the test box and retention trial was performed for 3 min. The duration for exploring each object in the acquisition trial and the retention trial was measured, and the exploration rate of novel object was calculated. The exploration rate of novel object was expressed as (the duration exploring the novel object)/[(the duration exploring the novel object)+(the duration exploring the familiar object)]×100(%) at mean±standard error.

Each structure is given as a SMILES string.

Consider `Cc1cnc(C(=O)N[C@H]2CCC[C@@H]2O)cc1Cc1ccc(-c2ccn(C)n2)cc1` [Example 1, N-((1S,2S)-2-hydroxycyclopentyl)-5-methyl-4-(4-(1-methyl-1H-pyrazol-3-yl)benzyl)pyridine-2-carboxamide], for which the “activity (%) at 10 μM” value in experiment [1] was found to be 86%. In the experiment on IP1 production (10 mg/kg), the “increase rate (%) of the IP1 production” value is reported as 38%. Moreover, the “exploration rate of novel object (%)” value in experiment [2] (10 mg/kg oral, control group 69.26±2.87%, solvent-scopolamine group 55.27±3.48%) came out at 64.59±2.59%. Consider `Cc1nc(C(=O)N[C@H]2CCC[C@@H]2O)cc(Cc2ccc(-c3ccn(C)n3)cc2)c1C` [Example 72, N-((1S,2S)-2-hydroxycyclopentyl)-5,6-dimethyl-4-(4-(1-methyl-1H-pyrazol-3-yl)benzyl)pyridine-2-carboxamide], for which, in experiment [1], the “activity (%) at 10 μM” value came to 105%. Further, in the experiment with IP1 production (10 mg/kg), the “increase rate (%) of the IP1 production” value was 70%. Besides, the “exploration rate of novel object (%)” value in experiment [2] (3 mg/kg oral, control group 66.74±3.01%, solvent-scopolamine group 47.48±3.66%) is on record as 53.16±2.80%. Take `Cc1nc(C(=O)N[C@H]2CCCC[C@@H]2O)cc(Cc2ccc(Br)cc2)c1C` [Example 77, 4-(4-bromobenzyl)-N-((1S,2S)-2-hydroxycyclohexyl)-5,6-dimethylpyridine-2-carboxamide]: the “activity (%) at 10 μM” value in experiment [1] is given as 100%.

As for `CCc1cnc(C(=O)N[C@H]2COCC[C@@H]2O)cc1Cc1ccc(-n2cccn2)cc1` [Example 44, 1,5-anhydro-2,4-dideoxy-2-(((5-ethyl-4-(4-(1H-pyrazol-1-yl)benzyl)pyridin-2-yl)carbonyl)amino)-L-threo-pentitol], the “activity (%) at 10 μM” value in experiment [1] stood at 92%. The same measure, in the same setting: to `O=C(N[C@H]1CCCC[C@@H]1O)c1cc(Cc2ccc(-n3cccn3)cc2)ccn1` [Example 45, N-((1S,2S)-2-hydroxycyclohexyl)-4-(4-(1H-pyrazol-1-yl)benzyl)pyridine-2-carboxamide] belongs 102%. On to `Cc1nc(C(=O)N[C@H]2CCCC[C@@H]2O)cc(Cc2ccc(-c3ccn(C)n3)nc2)c1C` [Example 74, N-((1S,2S)-2-hydroxycyclohexyl)-5,6-dimethyl-4-((6-(1-methyl-1H-pyrazol-3-yl)pyridin-3-yl)methyl)pyridine-2-carboxamide], for which the “activity (%) at 10 μM” value in experiment [1] amounted to 103%. In the experiment on IP1 production (3 mg/kg), the “increase rate (%) of the IP1 production” value is 22%. In experiment [2] (10 mg/kg oral, control group 66.74±3.01%, solvent-scopolamine group 47.48±3.66%), the “exploration rate of novel object (%)” value is recorded as 55.14±1.48%. Regarding `Cc1cnc(C(=O)NC2CCOCC2O)cc1Cc1ccc(-c2ccn(C)n2)cc1` (stereo not shown) [Example 21, 1,5-anhydro-2,3-dideoxy-3-(((5-methyl-4-(4-(1-methyl-1H-pyrazol-3-yl)benzyl)pyridin-2-yl)carbonyl)amino)pentitol], the “activity (%) at 10 μM” value in experiment [1] is 89%. Still for that read-out and setting: to `Cc1cnc(C(=O)NC2CCC(F)(F)CC2)cc1Cc1ccc(-c2ccn(C)n2)cc1` [Example 33, N-(4,4-difluorocyclohexyl)-5-methyl-4-(4-(1-methyl-1H-pyrazol-3-yl)benzyl)pyridine-2-carboxamide] belongs 71%. As to `COc1cnc(C(=O)N[C@H]2CCCC[C@@H]2O)cc1Cc1ccc(Cl)nc1` [Example 57, 4-((6-chloropyridin-3-yl)methyl)-N-(2-trans-hydroxycyclohexyl)-5-methoxypyridine-2-carboxamide], the “activity (%) at 10 μM” value in experiment [1] is 95%. Consider `Cc1cnc(C(=O)N[C@H]2CCCC[C@@H]2O)cc1Cc1ccc(-n2cccn2)cc1` [Example 48, N-((1S,2S)-2-hydroxycyclohexyl)-5-methyl-4-(4-(1H-pyrazol-1-yl)benzyl)pyridine-2-carboxamide], for which the “activity (%) at 10 μM” value in experiment [1] was 106%.

The values above are taken from patent US10214508B2, “Nitrogen-containing heterocyclic compound” (Takeda Pharmaceutical Company Limited, priority 2014, dated 2019).
